Blank lines part the entries; values can stand above or below the substance they belong to. Where no end group is shown, it is not given here.
Columns and labels:
[1] = Dulbecco's modified Eagle medium (DMEM) supplemented with 10% fetal bovine serum (FBS); conditions: 37° C.
[2] = tested on: pepsin; assay: pepsin; conditions: 37° C., up to 450 min
[3] = enzymes (0.1 μM) in DPBS (pH 7.4) or hydrochloric acid solution (pH 2); conditions: 37° C.
[4] = Dulbecco's modified Eagle medium (DMEM) supplemented with 25% fetal bovine serum (FBS); conditions: 37° C.
[5] = tested on: HdhQ111 cells; assay: Cell uptake by confocal microscopy and flow cytometry; assay type: cell-based, mouse; conditions: compared to the HV3-TAT-Rho peptide and rhodamine dye control
Experimental: Scale bars: 60 μm; 12 μm for inset. Cell Membrane: wheat germ agglutinin-Alexa 488 (green channel). Material: Rhodamine (red channel). Nuclei: Hoechst 33342 stain (blue channel).
Cell Uptake Methods: A major drawback for most peptide-based drugs is poor innate cell membrane permeability, such that many peptide-based drugs fail to reach their putative intracellular targets. Cellular uptake was evaluated by confocal microscopy and flow cytometry using a rhodamine dye labeled version of HV3-TAT (HV3-TAT-Rho) and a rhodamine labeled version of P1 (P1-Rho, e.g., as shown in FIG. 28A). FIG. 28B provides the relative fluorescent intensities of rhodamine alone, HV3-TAT-Rho, and P1-Rho—rhodamine showing near 1:1 addition of dye on to compounds.

[6] = tested on: HdhQ111 cells; assay: Mitochondrial localization in live HdhQ111 cells; assay type: cell-based, mouse; conditions: 3 μM, Mitotracker staining
Experimental: FIG. 7: Mitochondrial localization in live HdhQ111 cells. HdhQ111 cells were treated with HV3-TAT-Rho peptide, P1-Rho, and rhodamine dye alone at a concentration of 3 μM. Yellow (i.e., “localization” in FIG. 7) indicates colocalization of green and red channels, signifying localization to the mitochondria. Mitochondria: Mitotracker Green FM (green channel). Material: Rhodamine (red channel). Nuclei: Hoechst 33342 stain (blue channel). Scale Bars: 60 μm; 12 μm for inset.
Mitochondrial Localization Methods: A decisive pathologic hallmark for HdhQ111 cells is mitochondrial fragmentation. Since the mitochondrial membrane is the specific intracellular target location for the designed system, mitochondrial localization of P1-Rho in HdhQ111 cells was evaluated. To visualize mitochondrial localization, the mitochondria were stained with Mito Tracker.

[7] = tested on: HdhQ111 cells; assay: Accumulation assay, flow cytometry 2 and 7 days after a single treatment; assay type: cell-based, mouse; conditions: two and seven days after one treatment
[8] = mouse, in vivo
[9] = target: T1, interaction between VCP and mtHtt (Homo sapiens, UniProt P55072); assay: VCP binding assay: association of VCP to mtHtt by immunoprecipitation and western blot in HEK293 cells; assay type: cell-based; conditions: HEK293 cells co-transfected with GFP-VCP and myc-Q73 FL, 3 μM, three doses
T1 construct: GFP; expressed in transfected cells; host or cells: HEK293
T1 sequence (P55072 whole entry): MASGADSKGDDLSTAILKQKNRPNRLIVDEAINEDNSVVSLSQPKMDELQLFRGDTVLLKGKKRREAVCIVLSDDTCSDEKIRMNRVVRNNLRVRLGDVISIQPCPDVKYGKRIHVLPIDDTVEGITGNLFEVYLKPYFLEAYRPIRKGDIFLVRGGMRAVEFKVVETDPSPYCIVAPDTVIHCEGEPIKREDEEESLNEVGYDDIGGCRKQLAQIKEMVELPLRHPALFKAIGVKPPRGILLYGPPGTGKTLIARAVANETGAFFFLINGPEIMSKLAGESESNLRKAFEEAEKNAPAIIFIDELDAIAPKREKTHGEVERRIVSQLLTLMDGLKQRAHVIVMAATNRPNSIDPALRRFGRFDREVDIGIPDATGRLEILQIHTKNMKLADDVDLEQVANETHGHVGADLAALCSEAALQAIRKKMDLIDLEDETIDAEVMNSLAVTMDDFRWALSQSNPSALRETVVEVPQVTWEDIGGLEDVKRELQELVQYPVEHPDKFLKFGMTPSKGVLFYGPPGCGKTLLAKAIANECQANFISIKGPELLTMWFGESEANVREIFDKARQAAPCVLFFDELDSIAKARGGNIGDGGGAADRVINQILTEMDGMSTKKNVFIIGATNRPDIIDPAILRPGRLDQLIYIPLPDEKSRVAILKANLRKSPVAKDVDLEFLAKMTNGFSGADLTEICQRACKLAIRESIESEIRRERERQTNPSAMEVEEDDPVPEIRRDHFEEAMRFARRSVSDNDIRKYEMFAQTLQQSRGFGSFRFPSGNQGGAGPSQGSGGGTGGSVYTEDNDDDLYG
Experimental: Therefore, target engagement protein binding assays were conducted. HEK293 cells were cultured and plated one day before treatment. Cells were pre-treated with HV3-TAT or PLPs at 3 μM for 2 h. Cells were then co-transfected with GFP-VCP and myc-Q73 FL plasmids. Cells were treated with a second dose of peptide or PLPs 6 hours after transfection, and a final third dose of peptide or PLPs treatment was administered 24 hours after transfection. Cell total lysate was harvested 48 hours after transfection, and to confirm binding of PLPs to VCP in cells, association of VCP to mtHtt was quantified by immunoprecipitation (IP) followed by western blot upon treatment of HV3-TAT peptide and PLPs.

[10] = tested on: HdhQ111 cells; assay: Mitochondrial fragmentation assay; assay type: cell-based, mouse; conditions: compared to vehicle treatment group, at least 100 cells per group
Experimental: FIG. 8: Mitochondrial fragmentation assay. The percentage of HdhQ111 cells with fragmented mitochondria relative to the total number of cells was quantitated. At least 100 cells per group were counted.
FIG. 9: Mitochondrial fragmentation assay. Mitochondrial morphology was determined by staining cells with anti-Tom20 antibody. Nuclei: Hoechst 33342 stain. […] Scale Bars: 60 μm; 12 μm for inset.
Mitochondrial Fragmentation Methods: As preventing the fragmentation of the mitochondria is important for maintaining the health of striatal cells in the HD in vitro model, the PLP's abilities were tested in this regard.

[11] = tested on: HdhQ111 cells; assay: Cell viability (cell rescue) of serum-starved HdhQ111 cells; assay type: cell-based, mouse; conditions: 3 μM with respect to peptide, once a day for 3 days; compared to the vehicle control
Experimental: FIG. 3A: Cell viability of HV3-TAT peptide and PLPs. Compounds treated to the HdhQ111 cells once a day for 3 days. Concentration was 3 μM with respect to peptide. FIG. 3B: VCP binding assay results for HV3-TAT, P1, P2, and P4.
Cell Viability Methods: In vitro assays were carried out to examine the bioactivity of the PLPs, P1, P2, P3, and P4 and to compare against the known, active HV3-TAT. […] HdhQ111 cells were immortalized from knock-in mice carrying 111 CAG repeats in the mouse Htt gene.
To verify that the PLPs retain bioactivity after being exposed to enzymes or serum treatments, the viability of HD mouse mutant striatal HdhQ111 cells was assessed following treatment with HV3-TAT and P1. […] Cells were maintained at 33° C. and 5% CO2 with a relative humidity of 95%. HdQ111 cells were plated in 96-well plates at a density of 5000 per well and then left to attach for 24 h. Cells were treated with HV3-TAT or PLPs at 3 μM with respect to peptide once a day, for 3 days. The medium was replaced every day. After 72 h, cells were washed 3 times with PBS buffer. At this point, 20 μL of CTB reagent in 80 uL of medium was added, and the cells incubated for 3 hours at 37° C. Fluorescence was measured at 590 nm with excitation at 560 nm using a Perkin Elmer EnSpire plate reader. The average background fluorescence of CTB in media without cells was subtracted from the average fluorescence readings of the experimental wells. Viability was calculated as the average background-subtracted signal in a well compared to that of a negative control well (treatment with vehicle or media). Three replicates were performed for each independent sample. 10% DMSO was used as a positive control and untreated cells in complete medium as a negative control. Viability is reported as a percentage of untreated cells.

not cleaved [2]: no cleavage observed for up to 450 min
Substance: PLP homopolymer having peptide side chains of SEQ ID: 1 (HVLVMSATRR)
not cleaved [1]: stability of P1 seen with serum treatments | not cleaved [3]: maintained molecular weight running together with the untreated P1 control | not cleaved [4]: stability of P1 seen with serum treatments

Substance: P1-Rho: rhodamine labeled version of P1 (HVLVMSATRR-NH2; not fully specified (N-terminus); also: side chains of polynorbornene homopolymer (PLP), rhodamine label (site not given here))
cell association by flow cytometry [5]: significantly better cell association | mitochondrial localization [6]: exhibited overlapping signals with mitochondria | presence of compound in cells after one initial treatment [7]: detected

Substance: P1-Gd: P1 PLP terminated with the Gd-DOTA terminating agent (contrast agent tag) for ICPMS quantification (HVLVMSATRR-NH2; not fully specified (N-terminus); also: side chains of polynorbornene homopolymer (PLP, ROMP), Gd-DOTA terminating agent on polymer terminus)
biodistribution, main organs [8]: majority of the compound injected ends up in the liver and kidney | detection in the CNS [8]: detectable in the CNS | increase in half-life compared to the HV3-TAT peptide [8]: 3000 fold | distribution half-life ([8]; iv, 10 mg/kg): 0.333 h | elimination half-life ([8]; iv, 10 mg/kg): 152 h

association of VCP to mtHtt (VCP binding) [9]: exhibited evidence for binding
Substance: P4: PLP homopolymer having peptide side chains of SEQ ID: 4 (HVLVMSATKKKK) (HVLVMSATKKKK-NH2; not fully specified (N-terminus); also: side chains of polynorbornene homopolymer (PLP))
fragmented mitochondria [10]: significantly fewer fragmented mitochondria | cell viability [11]: higher significance than P3

Substance: P2: PLP homopolymer having peptide side chains of SEQ ID: 2 (HVLVMSATKK) (HVLVMSATKK-NH2; not fully specified (N-terminus); also: side chains of polynorbornene homopolymer (PLP))
cell viability [11]: higher significance than P3
